Assay results as given in patent US6610694B1, “Condensed pyridazine compounds, their production and use” (Takeda Chemical Industries, Ltd., priority 1998, dated 2003).
Counter-ions that a name gives are not always drawn.

What was measured:
[1] = tested on: histamine-induced skin reactions in guinea pigs; assay: Effect on histamine-induced skin reactions in guinea pigs (skin vascular permeability); assay type: in vivo, guinea pig; conditions: oral 3 mg/kg
Description: Effect on Histamine-induced Skin Reactions in Guinea Pigs
Male Hartley guinea pigs weighing about 500 g were used. After the dorsal hair was shaved under ether anesthesia, 1 ml of a 2.5% pontamine sky blue solution was injected intravenously administered, and then 0.1 ml of histamine at 3 μg/ml was injected intradermally into 2 sites (left and right) in the back. Thirty minutes after the injection of histamine, the animals were killed by bleeding and the skin was removed. Two perpendicular diameters (mm) of each blue spot on the inside of the skin were measured and multiplied; the mean for the two products was taken as the microvascular permeability index. Test compounds were suspended in a 5% gum arabic solution and orally administered in a volume of 0.2 ml/100 g body weight 1 hour before histamine administration. Animals in the control group received the same volume of a 5% gum arabic solution. The suppression rate of the sample for the title reaction was calculated using Equation 1, and the results are given in Table 1.
Inhibition (%) of histamine-induced skin reactions=100×(1−vascular permeability index in the presence of drug/vascular permeability index in control group) Equation 1
In the same manner as Experimental Example 1a, the effects of various example compounds on histamine-induced skin reactions in guinea pigs were examined.

guinea pig eosinophils = assay: Suppression of LTB4-induced chemotactic reaction in guinea pig eosinophils; assay type: cell-based
Description: 1) Preparation of Guinea Pig Eosinophils
To male Hartley guinea pigs, 2 ml of equine serum (Bio-Whittaker, Inc.) was intraperitoneally administered once weekly for 8 consecutive weeks. At 48 hours after final administration, 75 ml of physiological saline was intraperitoneally injected, after which the saline was recovered and centrifuged at 400×g for 5 minutes. The resulting sediment was suspended in 5 ml of Percoll solution (density (d)=1.07) and layered on top of the multiple layers of different densities of Percoll solution (density(d)=1.112, 5 ml; d=1.095, 10 ml; d=1.090, 10 ml; d=1.085, 5 ml), followed by centrifugation at 1,000×g for 25 minutes (20° C.). The cell layer formed at the interface between densities 1.112 and 1.095 was collected. Erythrocytes present in the collected cell sediment were removed by hypotonic treatment (suspended in water for […]).
The cell sediment was washed 3 times with Hanks' solution containing 10 mM Hepes (Dojin Kagaku) (Hanks-Hepes) and suspended in a Hanks-Hepes solution containing 2% human serum albumin (Wako Pure Chemical Industry or Sigma) (Hanks-Hepes-HSA) to a final concentration of 5.56×10^6 cells/ml. Eosinophil purity was 90%, viability being over 98%.
2) Determination of Chemotactic Reaction Suppression
To a 24-well petri dish, which serves as a lower chamber, 600 μl of Hanks-Hepes-HSA solution containing LTB4 (final concentration 10^−8 M, Cascade Biochemical Ltd.), was transferred, followed by incubation at 37° C. for 30 minutes in a carbon dioxide incubator. Separately, 200 μl of eosinophil suspension (5×10^6 cells/ml), previously incubated at 37 C for 15 minutes, was added to Chemotaxicell (polycarbonate membrane, pore size 3 μm, thickness 10 μm), which serves as an upper chamber, after the upper chamber was attached to the 24-well petri dish. After 2 hours of reaction in the CO2 incubator, the Chemotaxicell was removed; 60 μl of a 2% (w/v) solution of EDTA in physiological saline was added to the liquid in the lower chamber. After the mixture was on cooled ice, the cells migrating into the lower chamber were counted using a blood cell counter [Coulter Counter (trade name)]. The test drug, dissolved in N,N-dimethyl formamide (DMF), was added to both the upper and lower chambers to a final concentration of 10^-5 M.
Chemotactic reaction suppression rate=[1−(number of migrating cells in the presence of drug/number of migrating cells in the absence of drug).]×100 Equation 2
Suppression rates of LTB4-induced chemotactic reaction by test substances (1×10^−5 M) were calculated using the above equation.
In the same manner as Experimental Example 2a, the percent suppression of LTB4-induced chemotactic reactions by various example compounds was calculated.

[2] = same manner as Experimental Example 1a, Table 3
[3] = LTB4-induced chemotaxis, same manner as Experimental Example 2a (1×10^−5 M), Table 4

melting point [°C] | SMILES | further results
129 | CCOC(=O)C(C)(C)n1nc2ccc(OCCCN3CCC(OC(c4ccccc4)c4ccccc4)CC3)nn2c1=O.Cl | –
144 to 146 | c1ccc(C(OC2CCN(CCCCCCOc3ccc4nncn4n3)CC2)c2ccccc2)cc1 (as salt: fumarate) [Example 7a, 6-[6-[4-(Diphenylmethoxy)piperidino]hexyloxy][1,2,4]triazolo[4,3-b]pyridazine Fumarate] | –
132 to 134 | c1ccc(C(c2ccccc2)N2CCN(CCCOc3ccc4nncn4n3)CC2)cc1 [Example 1a, 6-[3-[4-(Diphenylmethyl)-1-piperazinyl]propoxy][1,2,4]triazolo[4,3-b]pyridazine] | –
143 to 144 | c1ccc(C(c2ccccc2)N2CCN(CCCSc3ccc4nncn4n3)CC2)cc1 [Example 2a, 6-[3-[4-(Diphenylmethyl)-1-piperazinyl]propylthio][1,2,4]triazolo[4,3-b]pyridazine] | –
139 to 140 | Cn1nc2ccc(OCCCN3CCC(OC(c4ccccc4)c4ccccc4)CC3)nn2c1=O [Example 2b, 6-[3-[4-(Diphenylmethoxy)piperidino]propoxy]-2-methyl[1,2,4]triazolo[4,3-b]pyridazin-3(2H)-one] | –
156 to 170 | O=c1[nH]nc2ccc(NCCCN3CCC(OC(c4ccccc4)c4ccccc4)CC3)nn12 [Example 3b, 6-[3-[4-(Diphenylmethoxy)piperidino]propylamino][1,2,4]triazolo[4,3-b]pyridazin-3(2H)-one] | Suppression (%) of histamine-induced skin vascular permeability elevation, oral administration at 3 mg/kg [1, 2]: 94%
167 to 168 | c1ccc(C(OC2CCN(CCCNc3ccc4nncn4n3)CC2)c2ccccc2)cc1 [Example 4a, 6-[3-(4-(Diphenylmethoxy)piperidino]propylamino][1,2,4]triazolo[4,3-b]pyridazine] | –
209 to 211 | O=c1[nH]nc2ccc(OCCCN3CCC(OC(c4ccccc4)c4ccccc4)CC3)nn12 [Example 4b, 6-[3-[4-(Diphenylmethoxy)piperidino]propoxy][1,2,4]triazolo[4,3-b]pyridazin-3(2H)-one] | Suppression (%) of histamine-induced skin vascular permeability elevation, oral administration at 3 mg/kg [1, 2]: 92%
124 to 125 | CCOC(=O)Cn1nc2ccc(OCCCN3CCC(OC(c4ccccc4)c4ccccc4)CC3)nn2c1=O [Example 5b, Ethyl 2-[6-[3-[4-(Diphenylmethoxy)piperidino]propoxy]-3-oxo[1,2,4]triazolo[4,3-b]pyridazin-2(3H)-yl]acetate] | –
149 to 150 | c1ccc(C(OC2CCN(CCOc3ccc4nncn4n3)CC2)c2ccccc2)cc1 [Example 6a, 6-(2-[4-(Diphenylmethoxy)piperidino]ethoxy][1,2,4]triazolo[4,3-b]pyridazine] | –
– | c1ccc(C(OC2CCN(CCCCCCOc3ccc4nncn4n3)CC2)c2ccccc2)cc1 [Example 7a, 6-[6-[4-(Diphenylmethoxy)piperidino]hexyloxy][1,2,4]triazolo[4,3-b]pyridazine Fumarate] | Suppression (%) of histamine-induced skin vascular permeability elevation, oral administration at 3 mg/kg ([1]; 1 hour before intradermal histamine, Table 1): 89%; Suppression rate (%) (guinea pig eosinophils; LTB4 10^−8 M-induced chemotaxis, test substance 1×10^−5 M, Table 2): 36%
181 to 185 | CC(C)(C(=O)O)n1nc2ccc(NCCCN3CCC(OC(c4ccccc4)c4ccccc4)CC3)nn2c1=O [Example 9b, 2-[6-[3-[4-(Diphenylmethoxy)piperidino]propylamino]-3-oxo[1,2,4]triazolo[4,3-b]pyridazin-2(3H)-yl]-2-methylpropionic Acid] | –
168 to 171 | CC(C)(C)C(=O)OCn1nc2ccc(NCCCN3CCC(OC(c4ccccc4)c4ccccc4)CC3)nn2c1=O [Example 10b, 6-[3-[4-(Diphenylmethoxy)piperidino]propylamino]-2-(pivaloyloxymethyl)[1,2,4]triazolo[4,3-b]pyridazin-3(2H)-one] | Suppression rate (%) (guinea pig eosinophils; [3]): 55%
133 to 139 | c1ccc(C(c2ccccc2)N2CCN(CCCCCCNc3ccc4nncn4n3)CC2)cc1 [Example 11a, 6-[6-[4-(Diphenylmethyl)-1-piperazinyl]hexylamino][1,2,4]triazolo[4,3-b]pyridazine] | –
162 | CC(C)(C)C(=O)OCOC(=O)C(C)(C)n1nc2ccc(NCCCN3CCC(OC(c4ccccc4)c4ccccc4)CC3)nn2c1=O [Example 11b, pivaloyloxymethyl 2-[6-[3-[4-(Diphenylmethoxy)piperidino]propylamino]-3-oxo[1,2,4]triazolo[4,3-b]pyridazin-2(3H)-yl]-2-methylpropionate] | Suppression rate (%) (guinea pig eosinophils; [3]): 100%
95 to 97 | OC(COc1ccc2nncn2n1)CN1CCN(C(c2ccccc2)c2ccccc2)CC1 (centres unmarked) [Example 15a, 6-[3-[4-(Diphenylmethyl)-1-piperazinyl]-2-hydroxypropoxy][1,2,4]triazolo[4,3-b]pyridazine] | –
155 to 157 | CC(C)(C(=O)O)c1nnc2ccc(NCCCN3CCC(OC(c4ccccc4)c4ccccc4)CC3)nn12 [Example 19a, 2-[6-[3-[4-(Diphenylmethoxy)piperidino]propylamino][1,2,4]triazolo[4,3-b]pyridazin-3-yl]-2-methylpropionic Acid] | –
129 to 133 | CCOC(=O)c1nnc2ccc(NCCCN3CCC(OC(c4ccccc4)c4ccccc4)CC3)nn12 [Example 21a, Ethyl 6-[3-[4-(Diphenylmethoxy)piperidino]propylamino][1,2,4]triazolo[4,3-b]pyridazine-3-carboxylate] | –
133 to 136 | CC(C)(C(N)=O)c1nnc2ccc(OCCCN3CCC(OC(c4ccccc4)c4ccccc4)CC3)nn12 [Example 23a, 2-[6-[3-[4-(Diphenylmethoxy)piperidino]propoxy][1,2,4]triazolo[4,3-b]pyridazin-3-yl]-2-methylpropionamide] | –
165 to 167 | CCOC(=O)C(C)(C)NC(=O)c1nnc2ccc(NCCCN3CCC(OC(c4ccccc4)c4ccccc4)CC3)nn12 [Example 25a, N-[6-[3-[4-(Diphenylmethoxy)piperidino]propylamino][1,2,4]triazolo[4,3-b]pyridazine-3-carbonyl]-2,2-dimethylglycine Ethyl Ester] | –
191 to 193 | CC(C)(NC(=O)c1nnc2ccc(NCCCN3CCC(OC(c4ccccc4)c4ccccc4)CC3)nn12)C(=O)O [Example 26a, N-[6-[3-[4-(Diphenylmethoxy)piperidino]propylamino][1,2,4]triazolo[4,3-b]pyridazine-3-carbonyl]-2,2-dimethylglycine] | –
163 to 165 | CC(C)(NC(=O)c1nnc2ccc(OCCCN3CCC(OC(c4ccccc4)c4ccccc4)CC3)nn12)C(=O)O [Example 28a, N-[6-[3-[4-(Diphenylmethoxy)piperidino]propoxy][1,2,4]triazolo[4,3-b]pyridazine-3-carbonyl]-2,2-dimethylglycine] | –
152 to 155 | CCOC(=O)CNC(=O)c1nnc2ccc(NCCCN3CCC(OC(c4ccccc4)c4ccccc4)CC3)nn12 [Example 29a, N-[6-[3-[4-(Diphenylmethoxy)piperidino]propylamino][1,2,4]triazolo[4,3-b]pyridazine-3-carbonyl]glycine ethyl ester] | –
182 to 184 | O=C(O)CNC(=O)c1nnc2ccc(NCCCN3CCC(OC(c4ccccc4)c4ccccc4)CC3)nn12 [Example 30a, N-[6-[3-[4-(Diphenylmethoxy)piperidino]propylamino][1,2,4]triazolo[4,3-b]pyridazine-3-carbonyl]glycine] | –
